Structures are written as SMILES.

Consider six compounds from patent US4175081A, “5-Substituted thiadiazole ureas” (priority 1977, dated 1979).

One assay deals with Johnson grass (JG). Description: Post-emergence herbicide test. The class given is in vivo, Sorgum helepense. Particulars: Sorghum halepense, 336 h, two weeks after treatment; for pest or weed control at 4483.4 g/ha: 4 lb/acre. As to the method: Johnson grass (JG)--Sorgum helepense
(§1) All crop and weed species were planted individually in 3' plastic pots containing potting soil. Four seeds each of corn, cotton, and snapbeans were seeded to a depth equal to the diameter of the seed. All other species were surface seeded and sprinkled with screened soil in an amount sufficient to cover the seed. Immediately after planting, all pots were watered by sub-irrigation in greenhouse trays. Pots for the pre-emergence phase were seeded one day before treatment.
(§2) Planting dates for the post-emergence phase were varied so that all seedlings would reach the desired stage of development simultaneously. The proper stage of seedling development for treatment in the post-emergence phase is as follows:
(§3) Compounds were tested at rates of application equivalent to 8 lbs. of actual compound per acre in a spray volume of 38 gallons per acre. Spray hood constants required to deliver the above volume are as follows:
(§4) Formulations for spray applications were prepared in 50 ml volumes with the following three components:
(§5) Formulations for the 4 lbs/acre rate were prepared by adjusting the amount of active ingredient accordingly.
(§6) Spray applications were made in a hood containing a removable belt and fixed spray nozzle. For passage through the spray hood, one pot of each specie (pre-emergence phase) was placed on the rear half of the flat. Treatments were removed to the greenhouse after spraying. Watering during the observation period was done only by sub-irrigation.
(§7) Two weeks after treatment, pre- and post-emergence injury or control was visually rated, and the results were as shown in the following tables. Pre-emergence data are provided in TABLE III and post-emergence data are provided in TABLE IV, for compounds having the formula illustrated in TABLE I. Correspondingly, pre-emergence and post-emergence data, respectively, are set forth in TABLES V AND VI, for compounds having the formula illustrated in TABLE II.

For assay [1], the system named is Turnip (TP). Description: Post-emergence herbicide test. The format is in vivo, Brassica sp. The conditions noted are these: two weeks after treatment; for pest or weed control at 4483.4 g/ha: 4 lb/acre. As to the method:
(§8) Turnip (TP)--Brassica sp.
as §1, §2
Pigweed and turnips: 1 or 2 true leaves above visible cotyledons.
(§9) Spray hood constants required to deliver the above volume are as follows:
(§10) Formulations for spray applications were prepared in 50 ml volumes with the following three components: […]
as §6, §7

A further assay concerns Bean (BN). Description: Post-emergence herbicide test. The class given is in vivo, Phaseolus vulgaris var. Black Valentine. The conditions noted are these: two weeks after treatment; for pest or weed control at 4483.4 g/ha: 4 lb/acre. As to the method: Bean (BN)--Phaseolus vulgaris var. Black Valentine
as §1, §2
Beans: primary leaves expanded, growing point at primary leaf nodes.
as §9, §4, §5, §6, §7

Another assay relates to Corn (CN). Description: Post-emergence herbicide test. The format is in vivo. Particulars: Zea mays, 336 h, two weeks after treatment; for pest or weed control at 4483.4 g/ha: 4 lb/acre. The method, then:
as §1, §2, §3, §4, §5, §6, §7

For a further assay, the system named is Cotton (CT). Description: Post-emergence herbicide test. The conditions noted are these: two weeks after treatment; for pest or weed control at 4483.4 g/ha: 4 lb/acre. The format is in vivo, Gossypium hirsutum var. DPL smooth leaf. The method, then:
Cotton (CT)--Gossypium hirsutum var. DPL smooth leaf
as §1, §2
Cotton: first true leaf 1' in length; expanded cotyledons.
as §9, §4, §5, §6, §7

The next assay relates to Barnyard grass (BG). Description: Post-emergence herbicide test. The format is in vivo. The conditions noted are these: Echinochloa crus-galli, 336 h, two weeks after treatment; for pest or weed control at 4483.4 g/ha: 4 lb/acre. As to the method: Barnyard grass (BG)--Echinochloa crus-galli
as §1, §2, §3, §4, §5, §6, §7

The test system of assay [2] is Crabgrass (CG). Description: Post-emergence herbicide test. The format is in vivo, Digitaria sanquinalis. Particulars: two weeks after treatment; for pest or weed control at 4483.4 g/ha: 4 lb/acre. The method, then:
(§11) Crabgrass (CG)--Digitaria sanquinalis
as §1, §2, §9, §10, §6, §7

For assay [3], the system named is Crabgrass (CG). Description: Pre-emergence herbicide test. The class given is in vivo, Digitaria sanquinalis. Particulars: two weeks after treatment. As to the method: as §11, §1, §9, §10, §6, §7
The subject of assay [4] is Turnip (TP). Description: Pre-emergence herbicide test. The format is in vivo, Brassica sp. Particulars: two weeks after treatment. The method, then: as §8, §1, §9, §10, §6, §7
Where [5] appears, read: Brassica rapa, post-emergence, 336 h.
Where [6] appears, read: Phaseolus vulgaris, post-emergence, 336 h.
[7] abbreviates: Gossypium hirsutum, post-emergence, 336 h.
The mark [8] stands for this setting: Digitaria sanguinalis, post-emergence, 336 h.

Take `CNC(=O)Nc1nnc(SCc2ccccc2)s1` [Example 46]: the pest or weed control at 4483.4 g/ha was 70% in the assay on Johnson grass (JG); 100% in the assay with Turnip (TP) [1] (setting [5]); 90% in the assay with Bean (BN) (setting [6]); 30% in the assay with Corn (CN); 100% in the assay on Cotton (CT) (setting [7]); 70% with Barnyard grass (BG). The same compound showed a pest or weed control at 4483.4 g/ha in the assay with Crabgrass (CG) [2] (setting [8]) of 70%.

Take `CCCCCS(=O)(=O)c1nnc(NC(=O)NC)s1` [Example 64]: the pest or weed control at 4483.4 g/ha in the assay with Johnson grass (JG) was found to be 50%; in the assay on Turnip (TP) [1] (setting [5]), 90%; in the assay on Bean (BN) (setting [6]) it was 90%; in the assay on Corn (CN), 30%; with Cotton (CT) (setting [7]), 70%; in the assay on Barnyard grass (BG) it was 60%. The compound also gave a pest or weed control at 4483.4 g/ha in the assay on Crabgrass (CG) [2] (setting [8]) of 90%.

`NC(=O)Nc1nnc(C(F)(F)F)s1` [Example 70]: the “Post-emergence activity, % control, TP” value with Turnip (TP) [1] (5 lb/acre) and in the assay on Turnip (TP) [1] (10 lb/acre) was 80% in each case. The “Post-emergence activity, % control, BN” value in the assay on Bean (BN) (5 lb/acre) and with Bean (BN) (10 lb/acre) was 50% throughout. Besides, the “Pre-emergence activity, % control, CG” value with Crabgrass (CG) [3] (5 lb/acre) and in the assay on Crabgrass (CG) [3] (10 lb/acre) was 10% in each case. Further, the “Post-emergence activity, % control, CT” value in the assay with Cotton (CT) (5 lb/acre) and with Cotton (CT) (10 lb/acre) was 20% in each case. In addition, the “Post-emergence activity, % control, CG” value in the assay on Crabgrass (CG) [2] (5 lb/acre) and in the assay with Crabgrass (CG) [2] (10 lb/acre) was 20% each time. The “Pre-emergence activity, % control, TP” value in the assay on Turnip (TP) [4] (5 lb/acre) and in the assay with Turnip (TP) [4] (10 lb/acre) was 10% each time.

With `CCCCS(=O)(=O)c1nnc(NC(=O)NC)s1` [Example 65], the pest or weed control at 4483.4 g/ha was 60% in the assay on Johnson grass (JG); 100% in the assay on Turnip (TP) [1] (setting [5]); 100% with Bean (BN) (setting [6]); 30% with Corn (CN); 70% in the assay on Cotton (CT) (setting [7]); 90% with Barnyard grass (BG). Moreover, the pest or weed control at 4483.4 g/ha with Crabgrass (CG) [2] (setting [8]) was determined as 90%.

For `CCCCSc1nnc(NC(=O)NC)s1` [Example 45], the pest or weed control at 1120.85 g/ha with Johnson grass (JG) (1 lb/acre) is 60%; with Turnip (TP) [1] (Brassica rapa, post-emergence, 336 h, 1 lb/acre), 50%; with Bean (BN) (Phaseolus vulgaris, post-emergence, 336 h, 1 lb/acre) it was 90%; in the assay on Corn (CN) (1 lb/acre), 70%; in the assay with Cotton (CT) (Gossypium hirsutum, post-emergence, 336 h, 1 lb/acre), 100%; with Barnyard grass (BG) (1 lb/acre), 90%. Besides, the pest or weed control at 1120.85 g/ha in the assay with Crabgrass (CG) [2] (Digitaria sanguinalis, post-emergence, 336 h, 1 lb/acre) worked out at 90%. The pest or weed control in the assay with Johnson grass (JG) (2 lb/acre) worked out at 90%; with Corn (CN) (2 lb/acre), 60%; with Crabgrass (CG) [2] (Digitaria sanguinalis, post-emergence, 336 h, 2 lb/acre), 90%. For the same compound, the pest or weed control at 2241.7 g/ha in the assay with Turnip (TP) [1] (Brassica rapa, post-emergence, 336 h, 2 lb/acre) was determined as 70%; with Bean (BN) (Phaseolus vulgaris, post-emergence, 336 h, 2 lb/acre), 100%; in the assay with Cotton (CT) (Gossypium hirsutum, post-emergence, 336 h, 2 lb/acre) it was 100%; in the assay with Barnyard grass (BG) (2 lb/acre), 80%.

As for `CCCCCCS(=O)(=O)c1nnc(NC(=O)NC)s1` [Example 58], the pest or weed control at 4483.4 g/ha in the assay on Johnson grass (JG) came to 30%; in the assay on Turnip (TP) [1] (setting [5]), 80%; in the assay with Bean (BN) (setting [6]) it was 70%; in the assay with Corn (CN), 20%; in the assay with Cotton (CT) (setting [7]), 50%; in the assay on Barnyard grass (BG), 20%. In the assay with Crabgrass (CG) [2] (setting [8]), this compound displayed a pest or weed control at 4483.4 g/ha of 50%.

What is called pest or weed control is how far the test organism was held down. Higher therefore signals strong suppression.
